pKi: −log10 of the molar value.
What was measured:
GABAA receptor α1β2γ2 = biological target: T1, GABAA receptor α1β2γ2 (Homo sapiens, UniProt P14867+P18507); test: Two-electrode voltage-clamp potentiation of GABA EC10 current in Xenopus oocytes, GABAA1; format: cell-based; settings: percentage potentiation of GABA EC10 current divided by that of diazepam
T1 construct: expressed in transfected cells; host or cells: Xenopus laevis oocytes injected with cRNA
How it was run: (§1)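 Human GABAA receptors expressed in Xenopus oocytes by cRNA injection (α:β:γ molar ratio ~1:1:10 for α1β2γ2, 1:1:1 for α2β3γ2), recorded 2-10 days later by two-electrode voltage clamp at −60 mV in ND-96, pH 7.5. Modulator preapplied 30 s before GABA at per-oocyte EC10. Peak-current percent potentiation over GABA alone, normalised to diazepam.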

[1] = biological target: T2, GABAA2 receptors (α2, β3, γ2 receptor subunits transfected into Sf9 cells) (Homo sapiens, UniProt P18507+P47869); test: GABAA2 Binding Method ([3H]-Flunitrazepam displacement); settings: [3H]-Flunitrazepam ~2 nM, α2β3γ2 Sf9 membranes, 1 hr at 4° C.
T2 construct: host or cells: Sf9 cells (membranes)
How it was run: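 Displacement of [3H]-flunitrazepam (~2 nM in assay) from recombinant human α2β3γ2 receptors in Sf9 membranes; 1 h incubation at 4 °C, harvest by filtration. Values reported as percent of control, IC50 and Ki.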

GABAA receptor α2β3γ2 = biological target: T3, GABAA receptor α2β3γ2 (Homo sapiens, UniProt P18507+P47869); test: Two-electrode voltage-clamp potentiation of GABA EC10 current in Xenopus oocytes, GABAA2; format: cell-based; settings: percentage potentiation of GABA EC10 current divided by that of diazepam
T3 construct: expressed in transfected cells; host or cells: Xenopus laevis oocytes injected with cRNA
How it was run: as §1

T2 sequence (P47869 29-451): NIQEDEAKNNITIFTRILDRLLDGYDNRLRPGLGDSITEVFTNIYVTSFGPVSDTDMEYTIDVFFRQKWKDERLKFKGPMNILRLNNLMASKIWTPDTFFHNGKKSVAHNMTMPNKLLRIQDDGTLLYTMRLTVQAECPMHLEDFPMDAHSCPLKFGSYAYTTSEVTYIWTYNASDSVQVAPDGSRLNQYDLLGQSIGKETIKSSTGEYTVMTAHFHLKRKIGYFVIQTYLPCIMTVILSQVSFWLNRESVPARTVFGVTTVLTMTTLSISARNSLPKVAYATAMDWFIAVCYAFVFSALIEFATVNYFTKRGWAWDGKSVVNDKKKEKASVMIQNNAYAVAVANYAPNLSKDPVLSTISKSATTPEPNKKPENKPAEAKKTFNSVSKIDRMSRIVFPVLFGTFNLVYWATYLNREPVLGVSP
T2 sequence (P28472 26-473 partner): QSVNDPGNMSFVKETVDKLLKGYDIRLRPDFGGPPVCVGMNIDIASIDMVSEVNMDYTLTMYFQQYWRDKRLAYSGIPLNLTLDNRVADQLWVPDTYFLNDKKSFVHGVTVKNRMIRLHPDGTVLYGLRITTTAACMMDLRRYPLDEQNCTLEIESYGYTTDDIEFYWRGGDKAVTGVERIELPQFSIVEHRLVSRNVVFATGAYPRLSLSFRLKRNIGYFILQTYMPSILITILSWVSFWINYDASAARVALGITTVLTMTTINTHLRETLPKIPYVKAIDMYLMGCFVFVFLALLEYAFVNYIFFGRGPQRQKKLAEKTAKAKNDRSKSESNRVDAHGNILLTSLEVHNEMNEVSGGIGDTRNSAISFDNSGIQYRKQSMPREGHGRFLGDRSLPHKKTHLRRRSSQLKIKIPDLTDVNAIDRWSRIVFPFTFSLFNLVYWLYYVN
T2 sequence (P18507 40-475): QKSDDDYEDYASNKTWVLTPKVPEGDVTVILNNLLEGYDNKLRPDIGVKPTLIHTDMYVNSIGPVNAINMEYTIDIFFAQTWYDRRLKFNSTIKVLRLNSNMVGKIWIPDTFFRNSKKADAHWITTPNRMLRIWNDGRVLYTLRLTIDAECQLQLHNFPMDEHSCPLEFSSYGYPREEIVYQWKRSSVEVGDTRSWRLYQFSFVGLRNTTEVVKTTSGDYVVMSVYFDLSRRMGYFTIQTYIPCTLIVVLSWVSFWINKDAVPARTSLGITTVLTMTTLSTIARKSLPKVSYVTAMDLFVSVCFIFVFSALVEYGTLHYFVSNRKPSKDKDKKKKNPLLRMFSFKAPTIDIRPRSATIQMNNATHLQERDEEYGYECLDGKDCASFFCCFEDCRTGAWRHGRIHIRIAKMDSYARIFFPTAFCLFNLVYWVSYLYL
T3 sequence (P47869 29-451): as the sequence (P47869 29-451) above
T3 sequence (P28472 26-473 partner): as the sequence (P28472 26-473 partner) above
T3 sequence (P18507 40-475): as the sequence (P18507 40-475) above
T1 sequence (P14867 28-456): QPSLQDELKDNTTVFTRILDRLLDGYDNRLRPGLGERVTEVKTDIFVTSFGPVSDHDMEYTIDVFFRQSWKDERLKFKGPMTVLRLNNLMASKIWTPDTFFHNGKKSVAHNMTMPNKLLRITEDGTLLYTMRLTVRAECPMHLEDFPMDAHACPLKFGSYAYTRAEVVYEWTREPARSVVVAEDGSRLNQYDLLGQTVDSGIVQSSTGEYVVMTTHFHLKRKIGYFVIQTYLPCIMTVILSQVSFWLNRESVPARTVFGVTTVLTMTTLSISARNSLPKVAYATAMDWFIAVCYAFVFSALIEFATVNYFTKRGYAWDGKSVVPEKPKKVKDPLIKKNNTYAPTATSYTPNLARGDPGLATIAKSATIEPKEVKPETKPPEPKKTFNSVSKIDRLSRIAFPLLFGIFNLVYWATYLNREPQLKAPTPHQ
T1 sequence (P47870 25-512 partner limits assumed): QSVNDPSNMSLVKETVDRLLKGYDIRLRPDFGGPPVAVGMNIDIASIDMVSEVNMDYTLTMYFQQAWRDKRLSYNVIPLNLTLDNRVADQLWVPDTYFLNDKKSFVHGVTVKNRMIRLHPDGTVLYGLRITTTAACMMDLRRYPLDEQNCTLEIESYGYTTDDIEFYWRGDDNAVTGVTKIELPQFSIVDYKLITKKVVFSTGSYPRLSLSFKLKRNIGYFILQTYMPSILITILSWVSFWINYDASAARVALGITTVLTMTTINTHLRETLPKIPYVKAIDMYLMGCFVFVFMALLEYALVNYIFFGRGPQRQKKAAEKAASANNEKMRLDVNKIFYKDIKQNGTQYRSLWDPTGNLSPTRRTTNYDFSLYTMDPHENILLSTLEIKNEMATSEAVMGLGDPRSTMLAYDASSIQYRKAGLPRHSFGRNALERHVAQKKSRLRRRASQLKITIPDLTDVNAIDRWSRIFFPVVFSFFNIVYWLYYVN
T1 sequence (P18507 40-475): as the sequence (P18507 40-475) above

SMILES | Relative Potentiation for GABAA1 (GABAA receptor α1β2γ2) | pKi [1] | Relative Potentiation for GABAA2 (GABAA receptor α2β3γ2)
COc1ncc(-c2cccc3c(N)c4c(nc23)CN(Cc2ccc(OC)c(OC)c2)C4=O)c(OC)n1 [9-amino-2-(3,4-dimethoxybenzyl)-5-(2,4-dimethoxypyrimidin-5-yl)-2,3-dihydro-1H-pyrrolo[3,4-b]quinolin-1-one] | 0.19 | 7.87 | 0.42
COc1cccc(C#N)c1-c1cccc2c(N)c3c(nc12)CN(C1CCC1)C3=O [2-(9-Amino-2-cyclobutyl-1-oxo-2,3-dihydro-1H-pyrrolo[3,4-b]quinolin-5-yl)-3-methoxybenzonitrile] | −0.043 | 8.26 | 0.21
COc1cccc(F)c1-c1cccc2c(N)c3c(nc12)CN(C(C)C)C3=O [9-Amino-5-(2-fluoro-6-methoxyphenyl)-2-isopropyl-2,3-dihydropyrrolo[3,4-b]quinolin-1-one] | −0.16 | 7.57 | 0.15
N#Cc1ccc(-c2cccc3c(N)c4c(nc23)CN(C2CCC2)C4=O)cn1 [5-(9-Amino-2-cyclobutyl-1-oxo-2,3-dihydro-1H-pyrrolo[3,4-b]quinolin-5-yl)-pyridine-2-carbonitrile] | −0.038 | 7.81 | 0.17
Nc1c2c(nc3c(-c4ccc(F)cc4F)cccc13)CN(C1CC1)C2=O [9-Amino-2-cyclopropyl-5-(2,4-difluorophenyl)-2,3-dihydropyrrolo[3,4-b]quinolin-1-one] | 0.018 | 7.70 | 0.14
COc1ccc(F)c(-c2cccc3c(N)c4c(nc23)CN(C2CCC2)C4=O)c1 [9-Amino-2-cyclobutyl-5-(2-fluoro-5-methoxyphenyl)-2,3-dihydropyrrolo[3,4-b]quinolin-1-one] | 0.1 | 8.87 | 0.29
CCCN1Cc2nc3c(-c4cccnc4C)cccc3c(N)c2C1=O [9-amino-5-(2-methylpyridin-3-yl)-2-propyl-2,3-dihydro-1H-pyrrolo[3,4-b]quinolin-1-one] | 0.22 | 7.94 | 0.26
Cn1cc(-c2cccc3c(N)c4c(nc23)CN(C2CCC2)C4=O)cn1 [9-Amino-2-cyclobutyl-5-(1-methyl-1H-pyrazol-4-yl)-2,3-dihydropyrrolo[3,4-b]quinolin-1-one] | 0.01 | 8.42 | 0.18
Nc1c2c(nc3c(-c4cccnc4F)cccc13)CN(C1CCC1)C2=O [9-Amino-2-cyclobutyl-5-(2-fluoropyridin-3-yl)-2,3-dihydropyrrolo[3,4-b]quinolin-1-one] | −0.002 | 8.59 | 0.24
CCN1Cc2nc3c(-c4cc(F)ccc4OC)c(F)ccc3c(N)c2C1=O [Example 46, 9-Amino-2-ethyl-6-fluoro-5-(5-fluoro-2-methoxyphenyl)-2,3-dihydropyrrolo[3,4-b]quinolin-1-one] | −0.008 | 7.76 | 0.3
CCCN1Cc2nc3c(-c4cccc(OC)c4)cccc3c(N)c2C1=O [9-amino-5-(3-methoxyphenyl)-2-propyl-2,3-dihydro-1H-pyrrolo[3,4-b]quinolin-1-one] | 0.31 | 7.20 | 0.3
COc1ccc(CN2Cc3nc4c(-c5cc(F)ccc5F)cccc4c(N)c3C2=O)cc1 [Example 2] | 0.12 | 7.35 | 0.13
COc1cccc(-c2cccc3c(N)c4c(nc23)CN(C2CCC2)C4=O)n1 [9-Amino-2-cyclobutyl-5-(6-methoxypyridin-2-yl)-2,3-dihydropyrrolo[3,4-b]quinolin-1-one] | 0.085 | 8.83 | 0.16
Nc1c2c(nc3c(-c4ccc(N5CCOCC5)nc4)cccc13)CN(C1CCC1)C2=O [9-Amino-2-cyclobutyl-5-(6-morpholin-4-yl-pyridin-3-yl)-2,3-dihydropyrrolo[3,4-b]quinolin-1-one] | −0.025 | 8.06 | 0.12
COc1ccc(CN2Cc3nc4c(-c5ccc(C)nc5Cl)cccc4c(N)c3C2=O)cc1OC [Example 23, 9-Amino-5-(2-chloro-6-methylpyridin-3-yl)-2-(3,4-dimethoxybenzyl)-2,3-dihydropyrrolo[3,4-b]quinolin-1-one] | 0.11 | 8.36 | 0.34
Cc1cccc(C)c1-c1cccc2c(N)c3c(nc12)CN(C1CC1)C3=O [9-amino-2-cyclopropyl-5-(2,6-dimethylphenyl)-2,3-dihydro-1H-pyrrolo[3,4-b]quinolin-1-one] | −0.07 | 7.62 | 0.025
CCCN1Cc2nc3c(-c4ccc(OC)nc4OC)c(F)ccc3c(N)c2C1=O [Example 24, 9-Amino-5-(2,6-dimethoxypyridin-3-yl)-6-fluoro-2-propyl-2,3-dihydropyrrolo[3,4-b]quinolin-1-one] | 0.15 | 8.53 | 0.35
COc1cc(C)c(-c2c(F)ccc3c(N)c4c(nc23)CN(C2CCC2)C4=O)cn1 [9-Amino-2-cyclobutyl-6-fluoro-5-(6-methoxy-4-methylpyridin-3-yl)-2,3-dihydropyrrolo[3,4-b]quinolin-1-one] | 0.065 | 8.52 | 0.17
CCN1Cc2nc3c(-c4ccc(OC)c(OC)c4)cccc3c(N)c2C1=O [Example 29, 9-Amino-2-ethyl-5-(3,4-dimethoxyphenyl)-2,3-dihydropyrrolo[3,4-b]quinolin-1-one] | 0.07 | 7.67 | 0.19
COc1cccc(F)c1-c1c(F)ccc2c(N)c3c(nc12)CN(C1CC1)C3=O [Example 35, 9-Amino-2-cyclopropyl-6-fluoro-5-(2-fluoro-6-methoxyphenyl)-2,3-dihydropyrrolo[3,4-b]quinolin-1-one] | −0.075 | 8.59 | 0.24
COc1cccc(-c2cccc3c(N)c4c(nc23)CN(C2CCC2)C4=O)c1F [9-Amino-2-cyclobutyl-5-(2-fluoro-3-methoxyphenyl)-2,3-dihydropyrrolo[3,4-b]quinolin-1-one] | 0.062 | 8.38 | 0.26
CCCN1Cc2nc3c(-c4ccc(C)nc4F)cccc3c(N)c2C1=O [9-amino-5-(2-fluoro-6-methylpyridin-3-yl)-2-propyl-2,3-dihydro-1H-pyrrolo[3,4-b]quinolin-1-one] | 0.22 | 7.71 | 0.37
CCCN1Cc2nc3c(-c4cc(C)cc(C)c4)cccc3c(N)c2C1=O [Example 7, 9-Amino-5-(3,5-dimethylphenyl)-2-propyl-2,3-dihydropyrrolo[3,4-b]quinolin-1-one] | 0.16 | 7.03 | 0.27

From patent US20080318943A1, “Compounds and Uses Thereof - 848” (ASTRAZENECA AB, priority 2007, published 2008)
